The values that follow come from patent US20250339569A1, “CARBONIC ANHYDRASE IX LIGANDS” (priority 2021, published 2025).

Starred links: 1 amine or outer side, 2 acyl side, 3 side chain; linkers in the order of their positions; H or OH if unused. Positions of bridges follow the written chain, without caps; N, C: chain ends. Non-standard residues stand in square brackets, D forms with d. Residues, ends and D or L forms follow the SMILES beside them. *: point of attachment. NH(CH2)3NH(O2Oc(DOTA)) = O=C(O)CN1CCN(CC(=O)O)CCN(CC(=O)NCCOCCOCC(=O)NCCCN*)CCN(CC(=O)O)CC1; DOTA = O=C(O)CN1CCN(CC(=O)O)CCN(CC(=O)*)CCN(CC(=O)O)CC1; Desaminotyrosyl = O=C(CCc1ccc(O)cc1)*; mXylylene = c1cc(C[*:1])cc(C[*:2])c1; NMeY = CN[C@@H](Cc1ccc(O)cc1)C(=O)O; X2 = O=C(CN1CCC(N[*:1])CC1)[*:2]; Propanoyl(3-OH) = O=C(CCO)*; Isovaleryl = CC(C)CC(=O)*; βAla = NCCC(=O)O A value given as a limit tells only on which side of the number the result lay.

The target in this assay is T1, CAIX-expressing human HT-29 colorectal cancer cells (Homo sapiens, UniProt Q16790).
T1 construct: CAIX-expressing human HT-29 colorectal cancer cells; host or cells: HT-29 human colorectal cancer cells
Nature of the assay: FACS binding assay (IC50 determination, competition with tracer 3BP-2776 or 3BP-4149). The note with it: FACS competition on HT-29 cells, Tracer ID 3BP-2776 (10 nM, biotin-labeled), 4° C., 1 hour; read-out: pIC50 category (activity) (converted). An outline of the steps:
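HT-29 cells in FACS buffer (PBS, 1% FCS) at 500.000 cells/ml were exposed to compounds competing with a labelled tracer, with biotinylated compounds detected by 1 μg/mL APC-streptavidin for 30 min on ice. APC/Cy5 median fluorescence was read by flow cytometry and IC50 derived by 4PL fit.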
(In general: In flow cytometry, cells or beads pass a laser one at a time.)
Regarding `CC(=O)N[C@H](C(=O)N[C@@H](CCCNC(=N)N)C(=O)N[C@H]1CSCc2cccc(c2)CSC[C@@H](C(N)=O)NC(=O)[C@H](CO)NC(=O)[C@H](Cc2c[nH]c3ccccc23)NC(=O)[C@H]([C@@H](C)O)NC(=O)[C@H](CC(C)C)NC(=O)[C@H](Cc2c[nH]c3ccccc23)NC(=O)[C@H](CC(=O)O)NC(=O)[C@H]2CCCN2C(=O)[C@H](CCC(=O)O)NC1=O)C(C)C` [3BP-3588] (Ac-VRCE[dP]DWLTWSC-NH2; linker 3-12 via mXylylene), the IC50 was less than 10 nM.

Turning to `CC(=O)N[C@H](C(=O)N(C)[C@@H](Cc1ccc(O)cc1)C(=O)N[C@H]1CSCc2cccc(c2)CSC[C@@H](C(N)=O)NC(=O)[C@H](CO)NC(=O)[C@H](Cc2c[nH]c3ccccc23)NC(=O)[C@H]([C@@H](C)O)NC(=O)[C@H](CC(C)C)NC(=O)[C@H](Cc2c[nH]c3ccccc23)NC(=O)[C@H](CC(=O)O)NC(=O)[C@H]2CCCN2C(=O)[C@H](CCC(=O)O)NC1=O)C(C)C` [3BP-3589] (Ac-V[NMeY]CE[dP]DWLTWSC-NH2; linker 3-12 via mXylylene), the IC50 is less than 10 nM.

For `CC(C)C[C@@H]1NC(=O)[C@H](Cc2c[nH]c3ccccc23)NC(=O)[C@H](CO)NC(=O)[C@H]2CCCN2C(=O)[C@H](CCC(=O)O)NC(=O)[C@@H](NC(=O)[C@H](Cc2ccc(O)cc2)NC(=O)[C@@H](NC(=O)CN2CCC(NC(=O)CN3CCN(CC(=O)O)CCN(CC(=O)O)CCN(CC(=O)O)CC3)CC2)C(C)C)CSCc2cccc(c2)CSC[C@@H](C(N)=O)NC(=O)[C@H](CO)NC(=O)[C@H](Cc2c[nH]c3ccccc23)NC(=O)[C@H]([C@@H](C)O)NC1=O` [3BP-3595] ({DOTA}-[X2]VYCE[dP]SWLTWSC-NH2; linker 4-13 via mXylylene), the IC50 is less than 10 nM.

Consider `CC(C)C[C@@H]1NC(=O)[C@H](Cc2ccccc2)NC(=O)[C@H](CC(=O)O)NC(=O)[C@H]2CCCN2C(=O)[C@H](CCC(=O)O)NC(=O)[C@@H](NC(=O)[C@H](Cc2ccc(O)cc2)NC(=O)[C@@H](NC(=O)CN2CCC(NC(=O)CN3CCN(CC(=O)O)CCN(CC(=O)O)CCN(CC(=O)O)CC3)CC2)C(C)C)CSCc2cccc(c2)CSC[C@@H](C(N)=O)NC(=O)[C@H](CO)NC(=O)[C@H](Cc2c[nH]c3ccccc23)NC(=O)[C@H]([C@@H](C)O)NC1=O` [3BP-3596] ({DOTA}-[X2]VYCE[dP]DFLTWSC-NH2; linker 4-13 via mXylylene), for which the IC50 was less than 10 nM.

Regarding `CC(C)C[C@@H]1NC(=O)[C@H](Cc2c[nH]c3ccccc23)NC(=O)[C@H](CC(=O)O)NC(=O)[C@H]2CCCN2C(=O)[C@H](CCC(=O)O)NC(=O)[C@@H](NC(=O)[C@H](Cc2ccc(O)cc2)NC(=O)[C@@H](NC(=O)CN2CCC(NC(=O)CN3CCN(CC(=O)O)CCN(CC(=O)O)CCN(CC(=O)O)CC3)CC2)C(C)C)CSCc2cccc(c2)CSC[C@@H](C(N)=O)NC(=O)[C@H](CO)NC(=O)[C@H](Cc2c[nH]c3ccccc23)NC(=O)[C@H](Cc2c[nH]cn2)NC1=O` [3BP-3597] ({DOTA}-[X2]VYCE[dP]DWLHWSC-NH2; linker 4-13 via mXylylene), the IC50 was less than 10 nM.

On to `CC(=O)N[C@H](C(=O)N[C@@H](Cc1ccc(O)cc1)C(=O)N[C@@H]1CSCc2cccc(c2)CSC[C@@H](C(N)=O)NC(=O)[C@H](CO)NC(=O)[C@H](Cc2c[nH]c3ccccc23)NC(=O)[C@H]([C@@H](C)O)NC(=O)[C@H](CC(C)C)NC(=O)[C@H](Cc2c[nH]c3ccccc23)NC(=O)CCNC1=O)C(C)C` [3BP-3604] (Ac-VY[dC][βAla]WLTWSC-NH2; linker 3-10 via mXylylene), for which the IC50 was 100 to 794 nM.

As to `CC(C)CC(=O)N[C@@H](CC(=O)O)C(=O)N[C@H]1CSCc2cccc(c2)CSC[C@@H](C(N)=O)NC(=O)[C@H](CO)NC(=O)[C@H](Cc2c[nH]c3ccccc23)NC(=O)[C@H]([C@@H](C)O)NC(=O)[C@H](CC(C)C)NC(=O)[C@H](Cc2c[nH]c3ccccc23)NC(=O)[C@H](CC(=O)O)NC(=O)[C@H]2CCCN2C(=O)[C@H](CCC(=O)O)NC1=O` [3BP-3727] (Isovaleryl-DCE[dP]DWLTWSC-NH2; linker 2-11 via mXylylene), the IC50 was less than 10 nM.

For `CC(C)CC(=O)N[C@@H](CCC(=O)O)C(=O)N[C@H]1CSCc2cccc(c2)CSC[C@@H](C(N)=O)NC(=O)[C@H](CO)NC(=O)[C@H](Cc2c[nH]c3ccccc23)NC(=O)[C@H]([C@@H](C)O)NC(=O)[C@H](CC(C)C)NC(=O)[C@H](Cc2c[nH]c3ccccc23)NC(=O)[C@H](CC(=O)O)NC(=O)[C@H]2CCCN2C(=O)[C@H](CCC(=O)O)NC1=O` [3BP-3728] (Isovaleryl-ECE[dP]DWLTWSC-NH2; linker 2-11 via mXylylene), the IC50 was less than 10 nM.

In the case of `CC(=O)N[C@@H](Cc1ccc(O)cc1)C(=O)N[C@H]1CSCc2cccc(c2)CSC[C@@H](C(N)=O)NC(=O)[C@H](CO)NC(=O)[C@H](Cc2c[nH]c3ccccc23)NC(=O)[C@H]([C@@H](C)O)NC(=O)[C@H](CC(C)C)NC(=O)[C@H](Cc2c[nH]c3ccccc23)NC(=O)[C@H](CC(=O)O)NC(=O)[C@H]2CCCN2C(=O)[C@H](CCC(=O)O)NC1=O` [3BP-3729] (Ac-YCE[dP]DWLTWSC-NH2; linker 2-11 via mXylylene), the IC50 is less than 10 nM.

As for `CC(C)C[C@@H]1NC(=O)[C@H](Cc2c[nH]c3ccccc23)NC(=O)[C@H](CC(=O)O)NC(=O)[C@H]2CCCN2C(=O)[C@H](CCC(=O)O)NC(=O)[C@@H](NC(=O)[C@H](Cc2ccc(O)cc2)NC(=O)CCO)CSCc2cccc(c2)CSC[C@@H](C(N)=O)NC(=O)[C@H](CO)NC(=O)[C@H](Cc2c[nH]c3ccccc23)NC(=O)[C@H]([C@@H](C)O)NC1=O` [3BP-3730] ({Propanoyl(3-OH)}-YCE[dP]DWLTWSC-NH2; linker 2-11 via mXylylene), the IC50 was less than 10 nM.

Turning to `CC(C)C[C@@H]1NC(=O)[C@H](Cc2c[nH]c3ccccc23)NC(=O)[C@H](CC(=O)O)NC(=O)[C@H]2CCCN2C(=O)[C@H](CCC(=O)O)NC(=O)[C@@H](NC(=O)CCc2ccc(O)cc2)CSCc2cccc(c2)CSC[C@@H](C(N)=O)NC(=O)[C@H](CO)NC(=O)[C@H](Cc2c[nH]c3ccccc23)NC(=O)[C@H]([C@@H](C)O)NC1=O` [3BP-3731] (Desaminotyrosyl-CE[dP]DWLTWSC-NH2; linker 1-10 via mXylylene), the IC50 is 10 to 79.4 nM.

Turning to `CC(=O)N[C@H](C(=O)N[C@@H](Cc1ccccc1)C(=O)N[C@H]1CSCc2cccc(c2)CSC[C@@H](C(N)=O)NC(=O)[C@H](CCC(=O)NCCCNC(=O)COCCOCCNC(=O)CN2CCN(CC(=O)O)CCN(CC(=O)O)CCN(CC(=O)O)CC2)NC(=O)[C@H](Cc2c[nH]c3ccccc23)NC(=O)[C@H]([C@@H](C)O)NC(=O)[C@H](CC(C)C)NC(=O)[C@H](Cc2c[nH]c3ccccc23)NC(=O)[C@H](CC(=O)O)NC(=O)[C@H]2CCCN2C(=O)[C@H](CCC(=O)O)NC1=O)C(C)C` [3BP-3733] (Ac-VFCE[dP]DWLTWE(NH(CH2)3NH(O2Oc(DOTA)))C-NH2; linker 3-12 via mXylylene), the IC50 is less than 10 nM.

`CC(=O)N[C@@H](CO)C(=O)N[C@@H](CCCNC(=N)N)C(=O)N[C@H]1CSCc2cccc(c2)CSC[C@@H](C(N)=O)NC(=O)[C@H](CCC(=O)NCCCNC(=O)COCCOCCNC(=O)CN2CCN(CC(=O)O)CCN(CC(=O)O)CCN(CC(=O)O)CC2)NC(=O)[C@H](Cc2c[nH]c3ccccc23)NC(=O)[C@H]([C@@H](C)O)NC(=O)[C@H](CC(C)C)NC(=O)[C@H](Cc2c[nH]c3ccccc23)NC(=O)[C@H](CC(=O)O)NC(=O)[C@H]2CCCN2C(=O)[C@H](CCC(=O)O)NC1=O` [3BP-3735] (Ac-SRCE[dP]DWLTWE(NH(CH2)3NH(O2Oc(DOTA)))C-NH2; linker 3-12 via mXylylene): the IC50 was less than 10 nM.

Take `CC(C)CC(=O)N[C@@H](CCCNC(=N)N)C(=O)N[C@H]1CSCc2cccc(c2)CSC[C@@H](C(N)=O)NC(=O)[C@H](CCC(=O)NCCCNC(=O)COCCOCCNC(=O)CN2CCN(CC(=O)O)CCN(CC(=O)O)CCN(CC(=O)O)CC2)NC(=O)[C@H](Cc2c[nH]c3ccccc23)NC(=O)[C@H]([C@@H](C)O)NC(=O)[C@H](CC(C)C)NC(=O)[C@H](Cc2c[nH]c3ccccc23)NC(=O)[C@H](CC(=O)O)NC(=O)[C@H]2CCCN2C(=O)[C@H](CCC(=O)O)NC1=O` [3BP-3741] (Isovaleryl-RCE[dP]DWLTWE(NH(CH2)3NH(O2Oc(DOTA)))C-NH2; linker 2-11 via mXylylene): the IC50 is 10 to 79.4 nM.

For the compound `CC(C)CC(=O)N[C@@H](Cc1ccccc1)C(=O)N[C@H]1CSCc2cccc(c2)CSC[C@@H](C(N)=O)NC(=O)[C@H](CCC(=O)NCCCNC(=O)COCCOCCNC(=O)CN2CCN(CC(=O)O)CCN(CC(=O)O)CCN(CC(=O)O)CC2)NC(=O)[C@H](Cc2c[nH]c3ccccc23)NC(=O)[C@H]([C@@H](C)O)NC(=O)[C@H](CC(C)C)NC(=O)[C@H](Cc2c[nH]c3ccccc23)NC(=O)[C@H](CC(=O)O)NC(=O)[C@H]2CCCN2C(=O)[C@H](CCC(=O)O)NC1=O` [3BP-3742] (Isovaleryl-FCE[dP]DWLTWE(NH(CH2)3NH(O2Oc(DOTA)))C-NH2; linker 2-11 via mXylylene), the IC50 is less than 10 nM.

Consider `CC(C)CC(=O)N[C@@H](CO)C(=O)N[C@H]1CSCc2cccc(c2)CSC[C@@H](C(N)=O)NC(=O)[C@H](CCC(=O)NCCCNC(=O)COCCOCCNC(=O)CN2CCN(CC(=O)O)CCN(CC(=O)O)CCN(CC(=O)O)CC2)NC(=O)[C@H](Cc2c[nH]c3ccccc23)NC(=O)[C@H]([C@@H](C)O)NC(=O)[C@H](CC(C)C)NC(=O)[C@H](Cc2c[nH]c3ccccc23)NC(=O)[C@H](CC(=O)O)NC(=O)[C@H]2CCCN2C(=O)[C@H](CCC(=O)O)NC1=O` [3BP-3743] (Isovaleryl-SCE[dP]DWLTWE(NH(CH2)3NH(O2Oc(DOTA)))C-NH2; linker 2-11 via mXylylene), for which the IC50 is less than 10 nM.
